Source: BindingDB's records for doi:10.1016/j.bioorg.2016.07.010 (Universiti Teknologi Mara (Uitm), 2016)

molecular target: Thymidine phosphorylase (Escherichia coli O45:K1 (strain S88 / ExPEC), UniProt B7MNI9); assay: Thymidine Phosphorylase Assay; conditions: pH 7.4; 25 °C
Description: The Thymidine phosphorylase/PD-ECGF (E. coli) activity was determined by measuring the absorbance at 290 nm spectrophotometrically. In brief, total reaction mixture of 200 uL contained 145 uL of potassium phosphate buffer (pH 7.4), 30 uL of enzyme (E. coli) at concentration 0.05 and 0.002 U, respectively, were incubated with 5 uL of test materials for 10 min at 25 °C in microplate reader. After incubation, preread at 290 nm was taken to deduce the absorbance of substrate particles. Substrate (20 uL, 1.5 mM), was dissolved in potassium phosphate buffer, was immediately added to plate and continuously read after 10, 20, and 30 min in microplate reader (spectra max, molecular devices, CA, USA). All assays were performed in triplicate.

Chain of Thymidine phosphorylase (B7MNI9 whole entry): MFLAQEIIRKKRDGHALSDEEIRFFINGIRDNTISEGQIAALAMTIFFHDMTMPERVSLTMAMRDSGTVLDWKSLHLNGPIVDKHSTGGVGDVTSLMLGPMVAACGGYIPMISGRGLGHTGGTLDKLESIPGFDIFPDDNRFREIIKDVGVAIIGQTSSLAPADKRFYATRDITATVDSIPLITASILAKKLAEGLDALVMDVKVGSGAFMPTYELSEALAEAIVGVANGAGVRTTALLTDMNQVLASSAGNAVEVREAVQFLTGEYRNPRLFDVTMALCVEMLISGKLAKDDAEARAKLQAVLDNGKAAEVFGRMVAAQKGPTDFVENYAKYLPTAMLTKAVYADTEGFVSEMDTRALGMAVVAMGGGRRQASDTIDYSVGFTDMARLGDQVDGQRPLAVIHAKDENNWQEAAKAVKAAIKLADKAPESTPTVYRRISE

Structure (SMILES)	IC50
O=c1[nH]c(=O)c2cc[nH]c2[nH]1 [1,7-Dihydro-pyrrolo[2,3-d]pyrimidine-2,4-dione]	38.7 µM
Clc1ccccc1/C=N/Nc1cnc2ccccc2n1 [(E)-2-(2-(2-chlorobenzylidene)hydrazinyl)quinoxaline (4)]	37.6 µM
Fc1ccccc1/C=N/Nc1cnc2ccccc2n1 [(E)-2-(2-(2-fluorobenzylidene)hydrazinyl)quinoxaline (1)]	33.6 µM
Clc1cccc(/C=N/Nc2cnc3ccccc3n2)c1 [(E)-2-(2-(3-chlorobenzylidene)hydrazinyl)quinoxaline (5)]	93.5 µM
Fc1cccc(/C=N/Nc2cnc3ccccc3n2)c1 [(E)-2-(2-(3-fluorobenzylidene)hydrazinyl)quinoxaline (2)]	66.1 µM
Fc1ccc(/C=N/Nc2cnc3ccccc3n2)cc1 [(E)-2-(2-(4-fluorobenzylidene)hydrazinyl)quinoxaline (3)]	58.1 µM
C(=N\Nc1cnc2ccccc2n1)/c1c[nH]c2ccccc12 [(E)-2-(2-((1H-indol-3-yl)methylene)hydrazinyl)quinoxaline (27)]	84.3 µM
Oc1ccc(O)c(/C=N/Nc2cnc3ccccc3n2)c1 [(E)-2-((2-(quinoxalin-2-yl)hydrazono)methyl)benzene-1,4-diol (16)]	35.5 µM
Oc1ccccc1/C=N/Nc1cnc2ccccc2n1 [(E)-2-((2-(quinoxalin-2-yl)hydrazono)methyl)phenol (28)]	37.2 µM
COc1ccc(/C=N/Nc2cnc3ccccc3n2)cc1O [(E)-2-methoxy-5-((2-(quinoxalin-2-yl)hydrazono)methyl)phenol (21)]	46.9 µM
Oc1cccc(/C=N/Nc2cnc3ccccc3n2)c1O [(E)-3-((2-(quinoxalin-2-yl)hydrazono)methyl)benzene-1,2-diol (14)]	15.4 µM
Oc1cccc(/C=N/Nc2cnc3ccccc3n2)c1 [(E)-3-((2-(quinoxalin-2-yl)hydrazono)methyl)phenol (12)]	63.2 µM
Oc1ccc(/C=N/Nc2cnc3ccccc3n2)cc1O [(E)-4-((2-(quinoxalin-2-yl)hydrazono)methyl)benzene-1,2-diol (17)]	8.6 µM
Oc1ccc(/C=N/Nc2cnc3ccccc3n2)c(O)c1 [(E)-4-((2-(quinoxalin-2-yl)hydrazono)methyl)benzene-1,3-diol (15)]	33.4 µM
Oc1ccc(/C=N/Nc2cnc3ccccc3n2)cc1 [(E)-4-((2-(quinoxalin-2-yl)hydrazono)methyl)phenol (13)]	48.6 µM
COc1ccc(O)c(/C=N/Nc2cnc3ccccc3n2)c1 [(E)-4-methoxy-2-((2-(quinoxalin-2-yl)hydrazono)methyl)phenol (24)]	36.3 µM
Oc1cc(O)c(/C=N/Nc2cnc3ccccc3n2)cc1O [(E)-5-((2-(quinoxalin-2-yl)hydrazono)methyl)benzene-1,2,4-triol (18)]	3.2 µM
Oc1cc(O)c(/C=N/Nc2cnc3ccccc3n2)c(O)c1 [(E)-5-((2-(quinoxalin-2-yl)hydrazono)methyl)benzene-2,4,6-triol (19)]	9.1 µM
COc1ccc(/C=N/Nc2cnc3ccccc3n2)c(O)c1 [(E)-5-methoxy-2-((2-(quinoxalin-2-yl)hydrazono)methyl)phenol (20)]	34.4 µM
